# Assay results: patent US10933008B1, “Silicon-based cannabidiol derivatives and compositions thereof” (Gelest Technologies, Inc., priority 2015, dated 2021)
# Tests used:
# [1] = Solubility study in common oils, silicones and water; type: physicochemical
# Description: It may be concluded that the CBD isolate was soluble in all oils and insoluble in all silicones and water. The CBD derivatives were insoluble in water and soluble in both oils and silicones (heating was required for the derivative of Example 1). […] Thus, the presence of the silicon-containing groups increased the solubility of CBD in all silicones tested.
# [2] = Release of CBD from the infused silicone elastomer on water washes, TLC analysis; type: physicochemical; conditions: hydrolyzed sample and water washes compared to CBD isolate
# Protocol: A solution was prepared by adding 5 g of the trisiloxanyl-cannabidiol product (IV) prepared in Example 3 and 5 g of n-propylheptamethyltrisiloxane (commercially available from Gelest) to a 20 ml vial. Sample 1 was prepared by inserting apiece of silicone elastomer (1.5 cm×2.5 cm, 0.35 g, commercially available from Gelest) into a 20 ml vial containing the solution and letting the vial sit with a closed lid for 30 minutes to absorb the solution into the elastomer. Sample 2 (control) was an identical piece of silicone elastomer which was inserted into a 20 ml vial containing hemp seed oil and let sit with a closed lid for 30 minutes to absorb the hemp oil into the elastomer.
# Sample 1 was washed in water three consecutive times. For each wash, the sample was placed in a vial containing 10 g of DI water and shaken for 10 seconds. The water from each wash was collected and analyzed for the presence of CBD using a basic thin-layer chromatography (TLC) method using 20% ethyl acetate in hexanes. CBD isolate was compared to a hydrolyzed sample of trisiloxanyl-cannabidiol product (IV) as well as all three washes.
smiles,measurement,setting,value
"C=C(C)[C@@H]1CCC(C)=C[C@H]1c1c(O)cc(CCCCC)cc1O [CBD, 2-[(1R,6R)-3-methyl-6-(1-methylethenyl)-2-cyclohexen-1-yl]-5-pentyl-1,3-benzenediol, reference compound]",Solubility in oils,[1]; all oils tested,soluble
same,Solubility in silicones,[1]; all silicones tested,insoluble
same,Solubility in water,[1]; water,insoluble
"CCCCCc1cc(O)c([C@H]2C=C(C)CC[C@H]2C(C)C[Si](C)(C)O[Si](C)(C)O[Si](C)(C)O[Si](C)(C)O[Si](C)(C)CCCC)c(O)c1 (stereo partly drawn) [Example 2, 2-[(1R,6R)-3-Methyl-6-(1-methyl-2-(1-butyl-1,1,3,3,5,5,7,7-octamethyltetrasiloxy-dimethylsilyl)ethyl)-2-cyclohexen-1-yl]-5-pentyl-1,3-benzenediol]",Solubility in castor oil,"[1]; castor oil, even with partial heating",only partially soluble
"C=C(C)[C@@H]1CCC(C)=C[C@H]1c1c(O)cc(CCCCC)cc1O[Si](C)(O[Si](C)(C)C)O[Si](C)(C)C [Example 3, 2-[(1R,6R)-3-Methyl-6-(1-methylethenyl)-2-cyclohexen-1-yl]-5-pentyl-1-(bis(trimethylsiloxy)methylsiloxy)-3-ol-benzene]",Hydrolysis to release CBD (TLC),[2],underwent hydrolysis to release CBD
